# Assay results reported in ChEMBL document CHEMBL1143218 (Bioorg Med Chem Lett, 2008).
# Experiments:
# [1] = target: Sodium-dependent serotonin transporter (Homo sapiens, UniProt P31645)
# [2] = target: Sodium-dependent dopamine transporter (Homo sapiens, UniProt Q01959)
# Sodium-dependent dopamine transporter, sequence (Q01959 whole entry): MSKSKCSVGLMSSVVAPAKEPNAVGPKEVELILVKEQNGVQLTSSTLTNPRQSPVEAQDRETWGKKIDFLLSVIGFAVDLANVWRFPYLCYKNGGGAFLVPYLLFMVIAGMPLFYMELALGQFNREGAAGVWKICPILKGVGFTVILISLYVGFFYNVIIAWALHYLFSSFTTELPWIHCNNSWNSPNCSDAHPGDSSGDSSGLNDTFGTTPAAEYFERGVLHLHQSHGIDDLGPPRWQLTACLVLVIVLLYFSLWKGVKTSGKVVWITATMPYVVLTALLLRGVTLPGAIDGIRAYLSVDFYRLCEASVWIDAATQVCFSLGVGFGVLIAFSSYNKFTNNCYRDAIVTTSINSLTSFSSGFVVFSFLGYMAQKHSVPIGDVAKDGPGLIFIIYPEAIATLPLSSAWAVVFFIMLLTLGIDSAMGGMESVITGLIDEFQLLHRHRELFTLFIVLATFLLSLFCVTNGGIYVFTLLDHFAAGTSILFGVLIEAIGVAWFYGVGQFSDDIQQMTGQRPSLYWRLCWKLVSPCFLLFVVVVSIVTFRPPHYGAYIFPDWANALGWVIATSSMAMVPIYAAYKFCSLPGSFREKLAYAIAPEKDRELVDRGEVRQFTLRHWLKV
# Sodium-dependent serotonin transporter, sequence (P31645 whole entry): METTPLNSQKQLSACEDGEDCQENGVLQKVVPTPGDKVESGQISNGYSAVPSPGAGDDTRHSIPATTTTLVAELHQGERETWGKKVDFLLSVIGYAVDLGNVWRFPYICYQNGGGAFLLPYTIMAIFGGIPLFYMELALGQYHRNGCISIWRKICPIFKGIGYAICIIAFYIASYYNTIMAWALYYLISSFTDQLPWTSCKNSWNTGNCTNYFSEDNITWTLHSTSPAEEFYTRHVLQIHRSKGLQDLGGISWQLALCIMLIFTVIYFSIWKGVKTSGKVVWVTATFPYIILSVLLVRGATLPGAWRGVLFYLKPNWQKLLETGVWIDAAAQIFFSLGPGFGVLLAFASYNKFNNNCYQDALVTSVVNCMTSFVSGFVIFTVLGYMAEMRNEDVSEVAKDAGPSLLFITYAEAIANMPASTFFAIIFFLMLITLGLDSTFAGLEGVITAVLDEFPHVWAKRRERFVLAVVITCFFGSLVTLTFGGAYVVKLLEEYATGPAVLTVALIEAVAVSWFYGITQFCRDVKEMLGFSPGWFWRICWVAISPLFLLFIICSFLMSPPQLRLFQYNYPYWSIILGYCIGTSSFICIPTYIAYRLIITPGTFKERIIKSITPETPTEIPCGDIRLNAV
SMILES,IC50 [1] [µM],IC50 [2] [µM]
CCN(CC)C(=O)C1(c2ccccc2)CC1CNCC1CCCC1 (racemic),> 10,> 10
NCC1CC1(C(=O)N1CCOCC1)c1ccccc1 (racemic),1.7,7.4
NCC1CC1(C(=O)N1CCCc2ccccc21)c1ccccc1 (racemic),0.1,> 10
CCN(CC)C(=O)C1(c2ccccc2)CC1CNCc1ncco1 (racemic),1.6,> 10
NCC1CC1(C(=O)NCc1ccccc1)c1ccccc1 (racemic),3.2,> 10
CCCCN(CC)C(=O)C1(c2ccccc2)CC1CN (racemic),2,> 10
CCN(C)C(=O)C1(c2ccccc2)CC1CN (racemic),0.83,2.4
CC(C)N(C(=O)[C@@]1(c2ccccc2)CC1CN)C(C)C (mixture of isomers),> 10,> 10
CCN(CC)C(=O)C1(c2ccccc2)CC1CNCc1cccnc1 (racemic),> 10,> 10
"CCN(CC)C(=O)C1(c2ccccc2)CC1CN(C)C (racemic) [N,N-DIMETHYL MILNACIPRAN]",> 10,4.5
CCNCC1CC1(C(=O)N(CC)CC)c1ccccc1 (racemic),1.3,> 10
NCC1CC1(C(=O)NC1CC1)c1ccccc1 (racemic),> 10,> 10
C=CCN(CC)C(=O)C1(c2ccccc2)CC1CN (racemic),0.28,> 10
CCN(CC)C(=O)[C@@]1(c2ccccc2)C[C@H]1CNC(=O)CN (racemic),2.2,> 10
NCC1CC1(C(=O)N1CCc2ccccc21)c1ccccc1 (racemic),0.013,3.9
CC(C)N(C(=O)C1(c2ccccc2)CC1CNC(=O)CN)C(C)C (racemic),> 10,4.6
CCN(CC)C(=O)C1(c2ccccc2)CC1CNCc1ccc[nH]1 (racemic),4.4,> 10
CCN(CC)C(=O)C1(c2ccccc2)CC1CNCc1ccco1 (racemic),> 10,> 10
CCN(Cc1ccccc1)C(=O)C1(c2ccccc2)CC1CN (racemic),0.16,> 10
NCC1CC1(C(=O)Nc1ccccc1)c1ccccc1 (racemic),> 10,> 10

SMILES,IC50 [1] [µM],IC50 [2] [µM]
CCCCNCC1CC1(C(=O)N(CC)CC)c1ccccc1 (racemic),> 10,> 10
NCC(=O)NCC1CC1(C(=O)N1CCc2ccccc21)c1ccccc1 (racemic),0.077,> 10
CCN(CC)C(=O)C1(c2ccccc2)CC1CNCC(C)C (racemic),> 10,> 10
CCN(CC)C(=O)C1(c2ccccc2)CC1CNCc1ccccn1 (racemic),3.5,6.2
CCN(CCOC)C(=O)C1(c2ccccc2)CC1CN (racemic),1.3,> 10
NCC(=O)NCC1CC1(C(=O)C1NCCc2ccccc21)c1ccccc1 (racemic),–,> 10
CCN(C(=O)C1(c2ccccc2)CC1CN)C(C)(C)C (racemic),> 10,> 10
CCN(CC)C(=O)C1(c2ccccc2)CC1CNCc1ccncc1 (racemic),> 10,> 10
NCC1C[C@@]1(C(=O)N1CCCC1)c1ccccc1 (mixture of isomers),–,> 10
NCC1CC1(C(=O)C1NCCc2ccccc21)c1ccccc1 (racemic),–,> 10
CCN(CC)C(=O)[C@@]1(c2ccccc2)CC1CNC (mixture of isomers),5.4,> 10
CCN(C(=O)C1(c2ccccc2)CC1CN)C1CCCCC1 (racemic),7.5,> 10
CCCN(CC)C(=O)C1(c2ccccc2)CC1CN (racemic),1.7,> 10
CCN(CC)C(=O)C1(c2ccccc2)CC1CNCc1cnco1 (racemic),4.8,> 10
CCN(CC)C(=O)C1(c2ccccc2)CC1CNCC(OC)OC (racemic),1.1,> 10
CCNC(=O)[C@@]1(c2ccccc2)CC1CN (mixture of isomers),> 10,> 10
NCC1CC1(C(=O)N1CCCCC1)c1ccccc1 (racemic),1.2,4.6
NCC1CC1(C(=O)N1CCCCCC1)c1ccccc1 (racemic),0.64,> 10
CCN(C(=O)C1(c2ccccc2)CC1CN)c1ccccc1 (racemic),4.4,> 10
